From patent US20240309015A1, “Methods for the Treatment of Fibrotic Disease” (SHY Therapeutics, LLC, priority 2021, published 2024)

Tests used:
Rho-A = test: Ras GTP Binding Domain Inhibition Assay, Rho-A; conditions: at 20 μM; without SOS
Experimental: (§1) A Ras Superfamily Activity Assay (as disclosed in International Application No. PCT/US2018/038613, filed Jun. 20, 2018, which is incorporated by reference in its entirety) was used as a specific assay to evaluate compounds against the following for the following Ras Superfamily proteins: KRas wild type, KRas Q61H mutant, KRas G12C mutant, KRas G12D mutant, Rac-1, and Rho-A.
(§2) Buffer-I: • 25 mM Tris-HCl, pH 7.4 • 27 mM KCl • 137 mM NaCl • 1 mM MgCl2 • 1 mM DTT
(§3) Buffer-IL: • 50 mM Tris-HCl, pH 7.0 • 1 mM MgCl2 • 1 mM DTT
(§4) The small GTPases proteins: KRas wild type. KRas Q61H mutant, KRas G12C mutant, KRas G12D mutants, Rac-1, and Rho-A were expressed as His-tagged proteins. In addition, the Guanosine nucleotide Exchange Factor (GEF) Sos protein (residues 556-1049) was expressed as a His-tagged protein. In cells, the guanine nucleotide exchange factor Sos protein promotes activation of Ras proteins by stimulating an exchange of GDP for GTP. The inclusion of Sos to the Ras GTP binding domain inhibition assay may be considered as an alternative representation of physiological cellular conditions for evaluating the inhibitory activity of some of the tested small molecules.
(§5) For the assay, all purified small GTPases proteins were diluted in Buffer-I or Buffer-II to a final concentration of 10-30 μg/mL. 200 μL of each diluted protein was added to a nickel-coated 96-well plate and incubated overnight at 4° C. Then the protein solution was discarded and 200 μL of Buffer-I or Buffer-II was added to each well in the presence of 1% DMSO. Compounds to be tested were added to the protein-coated wells at final concentration of 20 μM, and incubated for 3 hours at room temperature with and without 10-30 μg/mL of Sos added to the final hour of the incubation. When performing IC50 measurements a serial dilution of all tested concentrations was added. Then Cy3-GTP or Cy5-GTP was added to each well to a final concentration of 100 nM. The labeled GTP was incubated for 45 minutes at room temperature. Following GTP incubation, wells were washed 3× in Buffer-I or Buffer-II and 200 μL of Buffer-I or Buffer-II was added to each well. Following washes, the amount of bound labeled-GTP was measured using a SpectraMax M3 (Molecular Devices).

KRas G12D mutant = test: Ras GTP Binding Domain Inhibition Assay, KRas G12D mutant; conditions: at 20 μM; for KRas G12D mutant + SOS: % inh.: with SOS; for KRas G12D mutant: % inh.: without SOS
Experimental: as §1, §2, §3, §4, §5

KRas G12C mutant = test: Ras GTP Binding Domain Inhibition Assay, KRas G12C mutant; conditions: at 20 μM; for KRas G12C mutant + SOS: % inh.: with SOS; for KRas G12C mutant: % inh.: without SOS
Experimental: as §1, §2, §3, §4, §5

TNFα = test: Mouse TNF Alpha Quantification Assay (LPS-stimulated RAW 264.7); format: cell-based; parameters: dose or concentration left out as unconfirmed; conditions: RAW264.7, ELISA, read-out: TNFα: % inh.
KRas wild type = test: Ras GTP Binding Domain Inhibition Assay, KRas wild type; conditions: at 20 μM; for KRas wild type + SOS: % inh.: with SOS; for KRas wild type: % inh.: without SOS
Experimental: as §1, §2, §3, §4, §5

IL-6 = test: Mouse IL6 Quantification Assay (LPS-stimulated RAW 264.7); format: cell-based; parameters: dose or concentration left out as unconfirmed; conditions: RAW264.7, ELISA, read-out: IL-6: % inh.

With COCC1(OC)CCN(c2nc(-c3nccn3C)nc3sc(-c4ccn(C(C)C)n4)c(C)c23)C1 (racemic) [Compound 27, rac-6-(1-Isopropyl-1H-pyrazol-3-yl)-4-(3-methoxy-3-(methoxymethyl)pyrrolidin-1-yl)-5-methyl-2-(1-methyl-1H-imidazol-2-yl)thieno[2,3-d]pyrimidine] the “Rho-A: % inh.” value (Rho-A) was “C (C = 46-75% inhibition)”, the “KRas G12D mutant + SOS: % inh.” value (KRas G12D mutant; Table 7) was “D (D = 76-100% inhibition)” and the “KRas G12D mutant + SOS: % inh.” value (KRas G12D mutant; Table 8) was “D (D = 76-100% inhibition)”. For the same compound, the “KRas G12D mutant: % inh.” value (KRas G12D mutant; Table 7) was “C (C = 46-75% inhibition)”, the “KRas G12D mutant: % inh.” value (KRas G12D mutant; Table 8) was “C (C = 46-75% inhibition)” and the “KRas G12C mutant + SOS: % inh.” value (KRas G12C mutant) was “D (D = 76-100% inhibition)”. For the same compound, the “KRas G12C mutant: % inh.” value (KRas G12C mutant) was “D (D = 76-100% inhibition)”, the inhibition (TNFα) was 76 to 100% and the “KRas wild type + SOS: % inh.” value (KRas wild type) was “D (D = 76-100% inhibition)”. For the same compound, the “KRas wild type: % inh.” value (KRas wild type) was “D (D = 76-100% inhibition)” and the inhibition (IL-6) was 76 to 100%.
In the case of CO[C@H]1C[C@H](CNc2nc(-c3nccn3C)nc3sc(-c4ccn(C(C)C)n4)c(C)c23)C1 [Compound 16, 6-(1-Isopropyl-1H-pyrazol-3-yl)-N-(((1r,3r)-3-methoxycyclobutyl)methyl)-5-methyl-2-(1-methyl-1H-imidazol-2-yl)thieno[2,3-d]pyrimidin-4-amine], the “Rho-A: % inh.” value (Rho-A) is reported as “C (C = 46-75% inhibition)”, the “KRas G12D mutant + SOS: % inh.” value (KRas G12D mutant; Table 7) is reported as “C (C = 46-75% inhibition)” and the “KRas G12D mutant + SOS: % inh.” value (KRas G12D mutant; Table 8) is reported as “C (C = 46-75% inhibition)”. The “KRas G12D mutant: % inh.” value (KRas G12D mutant; Table 7) was “B (B = 26-45% inhibition)”, the “KRas G12D mutant: % inh.” value (KRas G12D mutant; Table 8) was “B (B = 26-45% inhibition)” and the “KRas G12C mutant + SOS: % inh.” value (KRas G12C mutant) was “C (C = 46-75% inhibition)”. For the same compound, the “KRas G12C mutant: % inh.” value (KRas G12C mutant) was “C (C = 46-75% inhibition)”, the inhibition (TNFα) was 1 to 25% and the “KRas wild type + SOS: % inh.” value (KRas wild type) was “C (C = 46-75% inhibition)”. The “KRas wild type: % inh.” value (KRas wild type) was “D (D = 76-100% inhibition)” and the inhibition (IL-6) was 46 to 75%.
COCCn1ccc(-c2sc3nc(-c4nccn4C)nc(N[C@@H]4CC[C@H](OC)C4)c3c2C)n1 (racemic) [Compound 39, rac-N-((1R,3S)-3-Methoxycyclopentyl)-6-(1-(2-methoxyethyl)-1H-pyrazol-3-yl)-5-methyl-2-(1-methyl-1H-imidazol-2-yl)thieno[2,3-d]pyrimidin-4-amine] was tested, and the “Rho-A: % inh.” value (Rho-A) was “C (C = 46-75% inhibition)”, the “KRas G12D mutant + SOS: % inh.” value (KRas G12D mutant; Table 7) was “D (D = 76-100% inhibition)” and the “KRas G12D mutant + SOS: % inh.” value (KRas G12D mutant; Table 8) was “D (D = 76-100% inhibition)”. For the same compound, the “KRas G12D mutant: % inh.” value (KRas G12D mutant; Table 7) was “C (C = 46-75% inhibition)”, the “KRas G12D mutant: % inh.” value (KRas G12D mutant; Table 8) was “C (C = 46-75% inhibition)” and the “KRas G12C mutant + SOS: % inh.” value (KRas G12C mutant) was “D (D = 76-100% inhibition)”. For the same compound, the “KRas G12C mutant: % inh.” value (KRas G12C mutant) was “D (D = 76-100% inhibition)”, the inhibition (TNFα) was 0% and the “KRas wild type + SOS: % inh.” value (KRas wild type) was “D (D = 76-100% inhibition)”. For the same compound, the “KRas wild type: % inh.” value (KRas wild type) was “D (D = 76-100% inhibition)” and the inhibition (IL-6) was 26 to 45%.
COCCO[C@H]1CC[C@@H](Nc2nc(-c3nccn3C)nc3sc(-c4ccn(C(C)C)n4)c(C)c23)C1 (racemic) [Compound 20, rac-6-(1-Isopropyl-1H-pyrazol-3-yl)-N-((1R,3S)-3-(2-methoxyethoxy)cyclopentyl)-5-methyl-2-(1-methyl-1H-imidazol-2-yl)thieno[2,3-d]pyrimidin-4-amine] was tested, and the “Rho-A: % inh.” value (Rho-A) was “C (C = 46-75% inhibition)”, the “KRas G12D mutant + SOS: % inh.” value (KRas G12D mutant; Table 7) was “D (D = 76-100% inhibition)” and the “KRas G12D mutant + SOS: % inh.” value (KRas G12D mutant; Table 8) was “D (D = 76-100% inhibition)”. The “KRas G12D mutant: % inh.” value (KRas G12D mutant; Table 7) was “D (D = 76-100% inhibition)”, the “KRas G12D mutant: % inh.” value (KRas G12D mutant; Table 8) was “D (D = 76-100% inhibition)” and the “KRas G12C mutant + SOS: % inh.” value (KRas G12C mutant) was “D (D = 76-100% inhibition)”. The “KRas G12C mutant: % inh.” value (KRas G12C mutant) was “D (D = 76-100% inhibition)”, the inhibition (TNFα) was 46 to 75% and the “KRas wild type + SOS: % inh.” value (KRas wild type) was “D (D = 76-100% inhibition)”. For the same compound, the “KRas wild type: % inh.” value (KRas wild type) was “D (D = 76-100% inhibition)” and the inhibition (IL-6) was 76 to 100%.
For COCCOCCNc1nc(-c2nccn2C)nc2sc(-c3ccn(C(C)C)n3)c(C)c12 [Compound 21, 6-(1-Isopropyl-1H-pyrazol-3-yl)-N-(2-(2-methoxyethoxy)ethyl)-5-methyl-2-(1-methyl-1H-imidazol-2-yl)thieno[2,3-d]pyrimidin-4-amine], the “Rho-A: % inh.” value (Rho-A) was “D (D = 76-100% inhibition)”, the “KRas G12D mutant + SOS: % inh.” value (KRas G12D mutant; Table 7) was “D (D = 76-100% inhibition)” and the “KRas G12D mutant + SOS: % inh.” value (KRas G12D mutant; Table 8) was “D (D = 76-100% inhibition)”. The “KRas G12D mutant: % inh.” value (KRas G12D mutant; Table 7) was “D (D = 76-100% inhibition)”, the “KRas G12D mutant: % inh.” value (KRas G12D mutant; Table 8) was “D (D = 76-100% inhibition)” and the “KRas G12C mutant + SOS: % inh.” value (KRas G12C mutant) was “D (D = 76-100% inhibition)”. The “KRas G12C mutant: % inh.” value (KRas G12C mutant) was “C (C = 46-75% inhibition)”, the inhibition (TNFα) was 1 to 25% and the “KRas wild type + SOS: % inh.” value (KRas wild type) was “D (D = 76-100% inhibition)”. The “KRas wild type: % inh.” value (KRas wild type) was “D (D = 76-100% inhibition)” and the inhibition (IL-6) was 46 to 75%.
COc1cccc(-c2sc3nc(-c4nccn4C)nc(N[C@H]4C[C@H](OC)C4)c3c2C)c1F [Compound 42, 6-(2-Fluoro-3-methoxyphenyl)-N-((1r,3r)-3-methoxycyclobutyl)-5-methyl-2-(1-methyl-1H-imidazol-2-yl)thieno[2,3-d]pyrimidin-4-amine] was tested, and the “Rho-A: % inh.” value (Rho-A) was “C (C = 46-75% inhibition)”, the “KRas G12D mutant + SOS: % inh.” value (KRas G12D mutant; Table 7) was “D (D = 76-100% inhibition)” and the “KRas G12D mutant + SOS: % inh.” value (KRas G12D mutant; Table 8) was “D (D = 76-100% inhibition)”. The “KRas G12D mutant: % inh.” value (KRas G12D mutant; Table 7) was “B (B = 26-45% inhibition)”, the “KRas G12D mutant: % inh.” value (KRas G12D mutant; Table 8) was “B (B = 26-45% inhibition)” and the “KRas G12C mutant + SOS: % inh.” value (KRas G12C mutant) was “D (D = 76-100% inhibition)”. The “KRas G12C mutant: % inh.” value (KRas G12C mutant) was “C (C = 46-75% inhibition)”, the inhibition (TNFα) was 0% and the “KRas wild type + SOS: % inh.” value (KRas wild type) was “D (D = 76-100% inhibition)”. The “KRas wild type: % inh.” value (KRas wild type) was “D (D = 76-100% inhibition)” and the inhibition (IL-6) was 46 to 75%.
With COc1cccc(Nc2nc(-c3nccn3C)nc3sc(-c4ccn(C(C)C)n4)c(C)c23)n1 [Compound 18, 6-(1-Isopropyl-1H-pyrazol-3-yl)-N-(6-methoxypyridin-2-yl)-5-methyl-2-(1-methyl-1H-imidazol-2-yl)thieno[2,3-d]pyrimidin-4-amine] the “Rho-A: % inh.” value (Rho-A) was “D (D = 76-100% inhibition)”, the “KRas G12D mutant + SOS: % inh.” value (KRas G12D mutant; Table 7) was “C (C = 46-75% inhibition)” and the “KRas G12D mutant + SOS: % inh.” value (KRas G12D mutant; Table 8) was “C (C = 46-75% inhibition)”. The “KRas G12D mutant: % inh.” value (KRas G12D mutant; Table 7) was “D (D = 76-100% inhibition)”, the “KRas G12D mutant: % inh.” value (KRas G12D mutant; Table 8) was “D (D = 76-100% inhibition)” and the “KRas G12C mutant + SOS: % inh.” value (KRas G12C mutant) was “C (C = 46-75% inhibition)”. For the same compound, the “KRas G12C mutant: % inh.” value (KRas G12C mutant) was “C (C = 46-75% inhibition)”, the inhibition (TNFα) was 0% and the “KRas wild type + SOS: % inh.” value (KRas wild type) was “C (C = 46-75% inhibition)”. The “KRas wild type: % inh.” value (KRas wild type) was “C (C = 46-75% inhibition)” and the inhibition (IL-6) was 26 to 45%.
